Nc1ccc(Cl)nn1
Conditions	solubility (mole fraction)
in DMF, 298.45 K	0.0353
in DMF, 303.35 K	0.0401
in DMF, 308.15 K	0.0455
in DMF, 313.35 K	0.0522
in DMF, 318.15 K	0.0592
in DMF, 323.25 K	0.0647
in DMF, 328.35 K	0.0705
in DMF, 333.45 K	0.0768
in DMF, 337.95 K	0.083
in DMF, 343.05 K	0.0904
in acetone, 298.15 K	0.00338
in acetone, 303.15 K	0.00423
in acetone, 308.15 K	0.00513
in acetone, 313.25 K	0.00597
in acetone, 318.15 K	0.00682
in acetone, 323.15 K	0.00791
in acetone, 328.15 K	0.00871
in cyclohexanone, 298.25 K	0.00455
in cyclohexanone, 303.25 K	0.0053
in cyclohexanone, 308.15 K	0.00643
in cyclohexanone, 313.15 K	0.00782
in cyclohexanone, 318.25 K	0.00889
in cyclohexanone, 323.05 K	0.0107
in cyclohexanone, 328.15 K	0.0125
in cyclohexanone, 333.15 K	0.015
in cyclohexanone, 338.25 K	0.0174
in cyclohexanone, 343.15 K	0.02
in ethanol, 298.15 K	0.00206
in ethanol, 303.25 K	0.00271
in ethanol, 308.15 K	0.00318
in ethanol, 313.15 K	0.00405
in ethanol, 318.15 K	0.005
in ethanol, 323.15 K	0.006
in ethanol, 328.15 K	0.00702
in ethanol, 333.15 K	0.00848
in ethanol, 338.15 K	0.00994
in ethanol, 342.85 K	0.0113
in ethyl acetate, 298.45 K	0.00133
in ethyl acetate, 303.35 K	0.00166
in ethyl acetate, 308.15 K	0.00194
in ethyl acetate, 313.15 K	0.00227
in ethyl acetate, 318.25 K	0.00263
in ethyl acetate, 323.25 K	0.00319
in ethyl acetate, 328.15 K	0.00358
in ethyl acetate, 333.15 K	0.00413
in ethyl acetate, 338.35 K	0.00479
in ethyl acetate, 343.15 K	0.0053
in methanol, 298.15 K	0.00388
in methanol, 303.35 K	0.00444
in methanol, 308.05 K	0.00525
in methanol, 313.15 K	0.00605
in methanol, 318.15 K	0.00721
in methanol, 322.95 K	0.00824
in methanol, 328.55 K	0.00936
in methanol, 332.45 K	0.0107
in n-butanol, 296.55 K	0.00171
in n-butanol, 302.95 K	0.00224
in n-butanol, 309.85 K	0.00315
in n-butanol, 313.05 K	0.00357
in n-butanol, 318.25 K	0.00428
in n-butanol, 322.95 K	0.00498
in n-butanol, 328.15 K	0.00629
in n-butanol, 333.45 K	0.00741
in n-butanol, 338.35 K	0.00871
in n-butanol, 343.15 K	0.0102
in toluene, 298.15 K	5.02e-05
in toluene, 303.25 K	6.73e-05
in toluene, 308.15 K	8.17e-05
in toluene, 313.35 K	0.000116
in toluene, 318.15 K	0.000155
in toluene, 323.25 K	0.000202
in toluene, 328.35 K	0.00025
in toluene, 333.15 K	0.000293
in toluene, 338.35 K	0.000352
in toluene, 343.55 K	0.000454
